Laboratory results taken from patent US8410157B2, “Fungicidal N-cycloalkyl-benzyl-thiocarboxamides or N-cycloalkyl-benzyl-N′-substituted-amidine derivatives” (Bayer Cropscience AG, priority 2007, dated 2013).

Test: LogP (Table 1)
Format: physicochemical

Point of comparison: `CC(c1cc(Cl)cc(Cl)c1)N(C(=S)c1cn(C)nc1Cl)C1CC1` (racemic) [Compound 49], LogP 4.49. Against it:
- CCCC(c1ccc(Cl)cc1Cl)N(C(=S)c1c(C)nn(C)c1F)C1CC1 (racemic) [Compound 10] — higher, 4.97
- Cc1nn(C)c(F)c1C(=S)N(C1CC1)C(C)c1ccc(Cl)cc1Cl (racemic) [Compound 15] — lower, 4.14
- Cc1nn(C)c(F)c1C(=S)N(C1CC1)C(C)c1cccc(OCc2ccccc2)c1 (racemic) [Compound 17] — within 0.2 log units, 4.36
- Cc1nn(C)c(F)c1C(=S)N(C1CC1)C(C)c1cc(Cl)ccc1Cl (racemic) [Compound 19] — lower, 4.04
- CCCc1nn(C)cc1C(=S)N(C1CC1)C(C)c1ccc(Cl)cc1Cl (racemic) [Compound 56] — within 0.2 log units, 4.39
- Cc1nn(C)c(F)c1C(=S)N(Cc1ccc(Oc2ccc(Cl)cc2)cc1)C1CC1 [Compound 1] — within 0.2 log units, 4.59
- Cc1nn(C)c(F)c1C(=S)N(Cc1ccc(-c2ccc(F)c(Cl)c2)cc1F)C1CC1 [Compound 2] — higher, 4.73
- Cc1nn(C)c(F)c1C(=S)N(Cc1cccc(C(F)(F)F)c1Cl)C1CC1 [Compound 3] — lower, 3.92
- CCc1cccc(CC)c1CN(C(=S)c1c(C)nn(C)c1F)C1CC1 [Compound 4] — within 0.2 log units, 4.39
- Cc1nn(C)c(F)c1C(=S)N(Cc1ccc(Oc2ccccc2)cc1)C1CC1 [Compound 5] — lower, 4.06
- Cc1nn(C)c(F)c1C(=S)N(Cc1c(Cl)cc(Cl)cc1Cl)C1CC1 [Compound 6] — within 0.2 log units, 4.42
- Cc1nn(C)c(F)c1C(=S)N(Cc1ccccc1[Si](C)(C)C)C1CC1 [Compound 7] — within 0.2 log units, 4.64
- Cc1nn(C)c(F)c1C(=S)N(Cc1ccc(C(F)(F)F)cc1Cl)C1CC1 [Compound 8] — lower, 4.14
- Cc1nn(C)c(F)c1C(=S)N(Cc1cc(C(F)(F)F)ccc1Cl)C1CC1 [Compound 9] — lower, 3.96
- Cc1nn(C)c(F)c1C(=S)N(Cc1ccccc1C1CCCCC1)C1CC1 [Compound 11] — higher, 5.17
- Cc1nn(C)c(F)c1C(=S)N(Cc1ccccc1I)C1CC1 [Compound 12] — lower, 3.68
- Cc1nn(C)c(F)c1C(=S)N(Cc1c(Br)cc(Br)cc1Br)C1CC1 [Compound 13] — higher, 4.86
- Cc1nn(C)c(F)c1C(=S)N(Cc1ccccc1C(C)C)C1CC1 [Compound 14] — lower, 3.89
- Cc1ccc(C(F)(F)F)c(CN(C(=S)c2c(C)nn(C)c2F)C2CC2)c1 [Compound 16] — lower, 4.06
- Cc1nn(C)c(F)c1C(=S)N(Cc1ccc(Oc2ccc(Cl)cc2Cl)cc1)C1CC1 [Compound 18] — higher, 5
- Cc1nn(C)c(F)c1C(=S)N(Cc1cc(Cl)ccc1Br)C1CC1 [Compound 22] — lower, 3.99
- CCc1nn(C)c(F)c1C(=S)N(Cc1ccc(C(F)(F)F)cc1Cl)C1CC1 [Compound 28] — within 0.2 log units, 4.54
- Cn1cc(C(=S)N(Cc2ccccc2Br)C2CC2)c(C(F)F)n1 [Compound 31] — lower, 3.46
- Cc1ccc(C(F)(F)F)c(CN(C(=S)c2cn(C)nc2C(F)F)C2CC2)c1 [Compound 32] — lower, 4.01
- Cn1cc(C(=S)N(Cc2cccc(OCc3ccccc3)c2)C2CC2)c(C(F)F)n1 [Compound 33] — lower, 4.06
- Cn1cc(C(=S)N(Cc2c(Cl)cccc2C(F)(F)F)C2CC2)c(C(F)F)n1 [Compound 34] — lower, 3.71
- Cn1cc(C(=S)N(Cc2ccc(C(F)(F)F)cc2Cl)C2CC2)c(C(F)F)n1 [Compound 35] — lower, 4.09
- Cn1cc(C(=S)N(Cc2cc(Cl)ccc2C(F)(F)F)C2CC2)c(C(F)F)n1 [Compound 36] — lower, 4.01
- Cn1cc(C(=S)N(Cc2ccccc2[Si](C)(C)C)C2CC2)c(C(F)F)n1 [Compound 37] — the same, 4.49
- Cn1cc(C(=S)N(Cc2cc(Cl)ccc2Br)C2CC2)c(C(F)F)n1 [Compound 42] — lower, 3.89
- Cn1cc(C(=S)N(Cc2cc3c(cc2Cl)OCO3)C2CC2)c(C(F)(F)F)c1 [Compound 44] — lower, 4.01
- Cn1cc(C(=S)N(Cc2c(Cl)cc(OC(F)(F)F)cc2Cl)C2CC2)c(C(F)(F)F)n1 [Compound 45] — higher, 4.9
- Cn1nc(C(=S)N(Cc2c(Cl)cccc2C(F)(F)F)C2CC2)c(C(F)(F)F)n1 [Compound 46] — within 0.2 log units, 4.67
- Cn1nc(C(=S)N(Cc2cc(Cl)ccc2C(F)(F)F)C2CC2)c(C(F)(F)F)n1 [Compound 47] — higher, 4.94
- Cn1nc(C(=S)N(Cc2ccc(Cl)cc2Cl)C2CC2)c(C(F)(F)F)n1 [Compound 48] — higher, 4.95
- Cn1cc(C(=S)N(Cc2c(Cl)cccc2C(F)(F)F)C2CC2)c(Cl)n1 [Compound 50] — lower, 3.83
- Cn1cc(C(=S)N(Cc2ccccc2I)C2CC2)c(Cl)n1 [Compound 51] — lower, 3.73
- Cn1cc(C(=S)N(Cc2c(Cl)cc(Cl)cc2Cl)C2CC2)c(Cl)n1 [Compound 52] — the same, 4.49
- CCc1nn(C)cc1C(=S)N(Cc1ccccc1I)C1CC1 [Compound 53] — lower, 3.53
- Cc1oc(C(C)(C)C)cc1C(=S)N(Cc1ccccc1I)C1CC1 [Compound 54] — higher, 5.95
- Cn1cc(C(=S)N(Cc2c(Cl)cccc2Cl)C2CC2)c(I)n1 [Compound 55] — lower, 3.71
